# Reference: patent US8202563B2, “Acidulate composition and methods for making and utilizing the same” (Clabber Girl Corporation, priority 2008, dated 2012)
# System: microbial growth (mold)
# Experiment: 6-month storage test of flour tortillas, visual signs of microbial growth
# Conditions: flour tortillas with sodium propionate and potassium sorbate, acidulate 0.2832 weight %, stored at about 77° F., end of 6-month period
# Procedure: The ingredients listed in Table 1 were combined at 100° F. The water and flour mixture was mixed for 2 minutes at a low speed with a dough hook. The dough was allowed to stand for 5 minutes and then divided into 50-gram balls that were heat pressed at 175° F. for 10 seconds. The raw tortillas were then baked on a griddle at 400° F. for 30 seconds on each side, and subsequently cooled.
# Tortillas from each test batch were evaluated after baking for volume, eating quality, and microbial growth. Thereafter, tortilla specimens from of each batch were heat sealed in cellophane bags, bagged in ZIPLOCK® freezer pouches and stored at about 77° F. All test batches of tortilla samples were checked periodically for visual signs of microbial growth, volume reduction, and overall appearance over a 6-month period.
compound,measurement,value
"O=C(O)/C=C/C(=O)O [raw fumaric acid, fumaric acid]",visual signs of microbial growth / mold on tortillas,"visual signs of microbial growth, albeit to a lesser extent than the control tortillas"
